Each structure is given as a SMILES string.

The test deals with T1, GnRH receptor (Homo sapiens, UniProt P30968).
T1 construct: expressed in transfected cells
T1 sequence (P30968 1-328): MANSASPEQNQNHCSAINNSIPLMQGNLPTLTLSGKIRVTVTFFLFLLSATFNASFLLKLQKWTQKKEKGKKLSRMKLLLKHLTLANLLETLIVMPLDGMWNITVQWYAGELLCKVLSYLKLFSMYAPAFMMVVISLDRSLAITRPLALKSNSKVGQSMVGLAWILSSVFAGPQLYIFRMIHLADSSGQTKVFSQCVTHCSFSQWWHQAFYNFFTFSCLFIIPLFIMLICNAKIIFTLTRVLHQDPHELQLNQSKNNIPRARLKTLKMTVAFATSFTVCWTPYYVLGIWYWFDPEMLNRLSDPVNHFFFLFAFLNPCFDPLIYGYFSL
The test is described as follows: GnRH receptor membrane binding assay. As to conditions: GnRH receptor membrane binding assay, [125I]-labeled GnRH peptide; read-out: Ki. On the procedure: Radio-Iodination of GnRH Peptide
The GnRH analog is labeled by the chloramine-T method. […] The reaction is stopped by the addition of 60 μg sodium metabisulfite and the free iodine is removed by passing the iodinated mixture through a C-8 Sep-Pak cartridge (Millipore Corp., Milford, Mass.). The peptide is eluted with a small volume of 80% acetonitrile/water. […] The purified radioactive peptide is stored in 0.1% BSA/20% acetonitrile/0.1% TFA at −80° C. and can be used for up to 4 weeks.
GnRH Receptor Membrane Binding Assay
Cells stably, or transiently, transfected with GnRH receptor expression vectors are harvested, resuspended in 5% sucrose and homogenized using a polytron homogenizer (2×15 sec). Nucleii are removed by centrifugation (3000×g for 5 min.), and the supernatant centrifuged (20,000×g for 30 min, 4° C.) to collect the membrane fraction. The final membrane preparation is resuspended in binding buffer (10 mM Hepes (pH 7.5), 150 mM NaCl, and 0.1% BSA) and stored at −70° C. Binding reactions are performed in a Millipore MultiScreen 96-well filtration plate assembly with polyethylenimine coated GF/C membranes. […] The reaction is terminated after 90 minutes by application of vacuum and washing (2×) with phosphate buffered saline. Bound radioactivity is measured using 96-well scintillation counting (Packard Topcount) or by removing the filters from the plate and direct gamma counting. Ki values are calculated from competition binding data using non-linear least squares regression using the Prism software package (GraphPad Software).
The Ki is a dissociation constant, usually derived from enzyme kinetics or from competition with a known ligand. On to `Cc1c(-c2ccc(Oc3ccccc3)cc2)c(=O)n(CCNCc2cccc([N+](=O)[O-])c2)c(=O)n1Cc1c(F)cccc1F` [9-142], for which the Ki is under 100 nM.
Take `Cc1c(-c2ccc(Oc3ccccc3)cc2)c(=O)n(CCNCc2ccc([N+](=O)[O-])cc2)c(=O)n1Cc1c(F)cccc1F` [9-143]: the Ki is under 100 nM.
Turning to `Cc1c(-c2ccc(Oc3ccccc3)cc2)c(=O)n(CCNCc2ccc(F)cc2C(F)(F)F)c(=O)n1Cc1c(F)cccc1F` [9-145], the inhibitory constant (Ki) was under 100 nM.
In the case of `Cc1c(-c2ccc(Oc3ccccc3)cc2)c(=O)n(CCN2CCN(c3ccccc3)CC2)c(=O)n1Cc1c(F)cccc1F` [9-146], the inhibitory constant (Ki) was under 100 nM.
The figure for `Cc1c(-c2ccccc2F)c(=O)n(CCNC2CCC(C)CC2)c(=O)n1Cc1c(F)cccc1F` (stereo not drawn) [9-149] is under 100 nM; for `Cc1c(-c2ccc3c(c2)OCO3)c(=O)n(CCNCC(F)(F)F)c(=O)n1Cc1c(F)cccc1F` [9-164] it is under 100 nM; for `Cc1c(-c2ccc3c(c2)OCCO3)c(=O)n(CCNCC(F)(F)F)c(=O)n1Cc1c(F)cccc1F` [9-191] it is under 100 nM.
Turning to `Cc1c(-c2ccc3c(c2)OCCO3)c(=O)n(CCN2CCN(c3ccccc3)CC2)c(=O)n1Cc1c(F)cccc1F` [9-199], the inhibitory constant (Ki) was under 100 nM.
For `Cc1c(-c2ccc3c(c2)OCCO3)c(=O)n(CCN(CCC#N)Cc2cccnc2)c(=O)n1Cc1c(F)cccc1F` [9-200] the value was under 100 nM; for `COc1ccccc1CCNCCn1c(=O)c(-c2ccc(Oc3ccccc3)cc2)c(C)n(Cc2c(F)cccc2F)c1=O` [9-215], under 100 nM.
Regarding `Cc1c(-c2ccc(Oc3ccccc3)cc2)c(=O)n(CCN[C@@H](C)c2ccc3ccccc3c2)c(=O)n1Cc1c(F)cccc1F` [9-219], the Ki is under 100 nM.
On to `CCN(CC)CCn1c(=O)c(-c2ccc(Oc3ccccc3)cc2)c(C)n(Cc2c(F)cccc2F)c1=O` [9-224], for which the Ki is under 100 nM.
Turning to `Cc1ccc(N2CCN(CCn3c(=O)c(-c4ccc(Oc5ccccc5)cc4)c(C)n(Cc4c(F)cccc4F)c3=O)CC2)cc1` [9-225], the inhibition constant Ki was under 100 nM.
The figure for `Cc1c(-c2ccccc2F)c(=O)n(CCNCCN(C)C)c(=O)n1Cc1c(F)cccc1F` [9-227] is under 100 nM; for `COc1ccc(CCNCCn2c(=O)c(-c3ccccc3F)c(C)n(Cc3c(F)cccc3F)c2=O)cc1OC` [9-229] it is under 100 nM; for `Cc1c(-c2ccccc2F)c(=O)n(CCN(C)C)c(=O)n1Cc1c(F)cccc1F` [9-237] it is under 100 nM.
For `CCCN1CCN(CCn2c(=O)c(-c3ccccc3F)c(C)n(Cc3c(F)cccc3F)c2=O)CC1` [9-240] the value was under 100 nM; for `Cc1c(-c2ccc3c(c2)OCO3)c(=O)n(CCNCCN(C)C)c(=O)n1Cc1c(F)cccc1F` [9-242], under 100 nM.
Take `COc1ccc(CCNCCn2c(=O)c(-c3ccc4c(c3)OCO4)c(C)n(Cc3c(F)cccc3F)c2=O)cc1OC` [9-244]: the inhibition constant (Ki) is under 100 nM.
For the molecule `Cc1c(-c2ccc3c(c2)OCO3)c(=O)n(CCNCC2CC2)c(=O)n1Cc1c(F)cccc1F` [9-245], the Ki was under 100 nM.
For `Cc1c(-c2ccc3c(c2)OCO3)c(=O)n(CCN[C@@H](C)c2ccc3ccccc3c2)c(=O)n1Cc1c(F)cccc1F` [9-247] the value was under 100 nM; for `CCN(CC)CCN(C)CCn1c(=O)c(-c2ccc3c(c2)OCO3)c(C)n(Cc2c(F)cccc2F)c1=O` [9-249], under 100 nM; for `CCN(CC)CCN(C)CCn1c(=O)c(-c2ccc(C(C)C)cc2)c(C)n(Cc2c(F)cccc2F)c1=O` [9-263], under 100 nM.
As to `Cc1c(-c2ccc3c(c2)OCCO3)c(=O)n(CCNCCN(C)C)c(=O)n1Cc1c(F)cccc1F` [9-270], the Ki was under 100 nM.
For `Cc1c(-c2ccc3c(c2)OCCO3)c(=O)n(CCN[C@@H](C)c2ccc3ccccc3c2)c(=O)n1Cc1c(F)cccc1F` [9-275] the value was under 100 nM; for `Cc1ccc(N2CCN(CCn3c(=O)c(-c4ccc5c(c4)OCCO5)c(C)n(Cc4c(F)cccc4F)c3=O)CC2)cc1` [9-281], under 100 nM.
Turning to `Cc1c(/C=C/c2ccccc2)c(=O)n(CCN(C)CCc2ccccn2)c(=O)n1Cc1c(F)cccc1F` [9-287], the Ki is under 100 nM.
For `COc1cccc(-c2c(C)n(Cc3c(F)cccc3F)c(=O)n(C[C@H](C)NCc3ccccc3)c2=O)c1F` [9-304] the value was under 100 nM.
In the case of `COc1cccc(-c2c(C)n(Cc3c(F)cccc3F)c(=O)n(C[C@H](C)N(C)Cc3ccccc3)c2=O)c1F` [9-305], the inhibitory constant (Ki) was under 100 nM.
The figure for `COc1cccc(-c2c(C)n(Cc3c(F)cccc3F)c(=O)n([C@H](C)CNCc3ccccc3)c2=O)c1` [9-312] is under 100 nM; for `COc1cccc(-c2c(C)n(Cc3c(F)cccc3F)c(=O)n(C[C@@H](C)N(C)CCc3ccccn3)c2=O)c1` [9-318] it is under 100 nM; for `Cc1c(-c2ccc3c(c2)OCO3)c(=O)n(CCNC2CCC(C)CC2)c(=O)n1Cc1c(F)cccc1F` (stereo not drawn) [9-320] it is under 100 nM.
The figure for `Cc1c(-c2ccc3c(c2)OCO3)c(=O)n(CCN2CCN(c3cccc(C(F)(F)F)c3)CC2)c(=O)n1Cc1c(F)cccc1F` [9-361] is under 100 nM; for `CCOC(=O)N1CCN(CCn2c(=O)c(-c3ccc4c(c3)OCO4)c(C)n(Cc3c(F)cccc3F)c2=O)CC1` [9-362] it is under 100 nM.
For `COc1cccc(-c2c(C)n(Cc3c(F)cccc3F)c(=O)n(CC(C)NC(C)C(C)C)c2=O)c1F` (stereo not drawn) [9-399], the Ki was under 100 nM.
Regarding `COc1cccc(-c2c(C)n(Cc3c(F)cccc3F)c(=O)n(C(C)CNCc3ccccn3)c2=O)c1` (stereo not drawn) [9-402], the inhibition constant (Ki) was under 100 nM.
In the case of `COc1cccc(-c2c(C)n(Cc3c(F)cccc3F)c(=O)n(C[C@H](C)N(C)Cc3ccccn3)c2=O)c1F` [9-409], the inhibitory constant (Ki) is under 100 nM.
For the molecule `Cc1cccnc1CCN1CCCC1Cn1c(=O)cc(C)n(Cc2c(F)cccc2F)c1=O` (stereo not drawn) [9-415], the Ki was under 100 nM.
The figure for `COc1cccc(-c2c(C)n(Cc3c(F)cccc3F)c(=O)n(C[C@H](Cc3ccccc3)N(C)C)c2=O)c1F` [9-443] is under 100 nM; for `COc1cccc(-c2c(C)n(Cc3c(F)cccc3F)c(=O)n([C@H](C)CNCc3ccccc3F)c2=O)c1` [9-446] it is under 100 nM.
For `COc1cccc(-c2c(C)n(Cc3c(F)cccc3F)c(=O)n([C@H](C)CNCc3cccc(F)c3)c2=O)c1` [9-448] the value was under 100 nM; for `COc1cccc(-c2c(C)n(Cc3c(F)cccc3F)c(=O)n([C@H](C)CNCc3cc(C)cc(C)c3)c2=O)c1` [9-454], under 100 nM.
With `COc1cccc(-c2c(C)n(Cc3c(F)cccc3F)c(=O)n(C[C@H](C)NCCc3ccccn3)c2=O)c1F` [9-470], the Ki was under 100 nM.
For `COc1cccc(-c2c(C)n(Cc3c(F)cccc3F)c(=O)n([C@H](C)CNCc3cccc(C)c3)c2=O)c1` [9-473] the value was under 100 nM; for `COc1cccc(CNC[C@@H](C)n2c(=O)c(-c3cccc(OC)c3)c(C)n(Cc3c(F)cccc3F)c2=O)c1` [9-477], under 100 nM.
For `COc1cccc(-c2c(C)n(Cc3c(F)cccc3F)c(=O)n([C@H](C)CNCc3ccc4c(c3)CCO4)c2=O)c1F` [9-495] the value was under 100 nM.
In the case of `COc1cccc(-c2c(C)n(Cc3c(F)cccc3F)c(=O)n([C@H](C)CNCc3cccc4ccccc34)c2=O)c1F` [9-502], the inhibitory constant (Ki) was under 100 nM.
In the case of `COc1cccc(-c2c(C)n(Cc3c(F)cccc3F)c(=O)n([C@H](C)CNCc3cc(Cl)ccc3O)c2=O)c1F` [9-503], the Ki is under 100 nM.
Turning to `COc1cccc(-c2c(C)n(Cc3c(F)cccc3F)c(=O)n([C@H](C)CNCc3c[nH]c4ccccc34)c2=O)c1F` [9-509], the Ki is under 100 nM.
The figure for `COc1cccc(-c2c(C)n(Cc3c(F)cccc3F)c(=O)n([C@H](C)CNCc3ccccn3)c2=O)c1F` [9-512] is under 100 nM; for `COc1cccc(-c2c(C)n(Cc3c(F)cccc3F)c(=O)n([C@H](C)CNCc3c(F)cccc3Cl)c2=O)c1` [9-514] it is under 100 nM; for `CN[C@@H](Cc1ccccc1)Cn1c(=O)c(-c2cccc(OC)c2F)c(C)n(Cc2c(F)cccc2F)c1=O` [9-517] it is under 100 nM.
The figure for `COc1cccc(-c2c(C)n(Cc3c(F)cccc3F)c(=O)n(C[C@@H](C)NCc3ccsc3)c2=O)c1F` [9-570] is under 100 nM; for `COc1cccc(-c2c(C)n(Cc3c(F)cccc3F)c(=O)n(CC(C)NCC3CCCCC3)c2=O)c1F` (stereo not drawn) [9-589] it is under 100 nM.
The figure for `COc1cccc(-c2c(C)n(Cc3c(F)cccc3F)c(=O)n(CC(C)NCc3cc(C)c(C)o3)c2=O)c1F` (stereo not drawn) [9-595] is under 100 nM; for `COc1cccc(-c2c(C)n(Cc3c(F)cccc3F)c(=O)n(C[C@H](C)NCc3[nH]cnc3C)c2=O)c1F` [9-602] it is under 100 nM.
Take `CCCCN(CCCC)[C@H](C)Cn1c(=O)c(-c2cccc(OC)c2F)c(C)n(Cc2c(F)cccc2F)c1=O` [9-612]: the inhibition constant Ki is under 100 nM.
